Results on ten compounds are retold here after US5792759A, “17-hydroxyiminoalkyl and 17-hydroxyiminomethylalkenyl cyclopentaneperhydrophenanthrene derivatives active on the cardiovascular system, a process for their preparation and pharmaceutical compositions containing the same” (Sigma-Tau Industrie Farmaceutiche Riunite S.p.A., priority 1995, dated 1998).

Like-named read-outs stand apart in the source and are kept apart here.

For orientation: IC50 means the midpoint of a concentration-inhibition curve.

Assay [1] has as its target T1, purified Na^+, K^+ -ATPase (Canis lupus familiaris, UniProt P50997).
T1 construct: Na^+, K^+ -ATPase receptor purified according to Jorghensen; from tissue
As to the kind of experiment: inhibition of the activity of the purified Na+, K+-ATPase (% of hydrolysis of 32P-ATP). Format: biochemical. The source says: (§1) To test the affinity for the receptor site of the Na^+, K^+ -ATPase and the agonist or inhibitory activity on the enzyme, the following tests were used:
b) inhibition of the activity of the purified Na^+, K^+ -ATPase measured as % of hydrolysis of ^32 P-ATP in the presence and in the absence of the tested compound (Doucet A. et al., Am. J. Physiol., 1986, 251, F851).

Assay [2] has as its target T2, Na^+, K^+ -ATPase receptor (Canis lupus familiaris, UniProt P50997).
T2 construct: Na^+, K^+ -ATPase receptor purified according to Jorghensen; from tissue
As to the kind of experiment: displacement of the specific 3H-oubain binding from the Na+, K+-ATPase receptor. To be noted: 3H-oubain displacement from purified Na+,K+-ATPase; read-out: Binding ^3 H-oubain displacement -log IC50 (converted).
Description: as §1
a) displacement of the specific ^3 H-oubain binding from the Na^+, K^+ -ATPase receptor purified according to Jorghensen (Jorghensen P., BBA, 1974, 356, 36) and Erdmann (Erdmann E. et al., Arzneim. Forsh, 1984, 34,1314);

Assay [3] concerns Na^+, K^+ -ATPase. To be noted: reported in DE 4,227,626; cited from earlier work.
For assay [4], the system named is Na^+, K^+ -ATPase. To be noted: reported in DE 4,227,626; cited from earlier work. This is another data set of the same source.
The mark [5] stands for this setting: purified Na+,K+-ATPase, 32P-ATP hydrolysis, read-out: Inhibitory activity -log IC50 (converted).

With `CN(C)CCO/N=C/[C@H]1CC[C@H]2[C@@H]3CC[C@@H]4C[C@@H](OCCN5CCCC5)CC[C@]4(C)[C@H]3CC[C@]12C` [I-b, (E)-17β-[2-dimethylaminoethoxyiminomethyl]-3β-[2-(1-pirrolidinyl)ethoxy]-5β-androstane], the half-inhibitory concentration (IC50) in assay [1] is 7.94 µM; in assay [2] it was 501 nM.
For the compound `C[C@]12CC[C@H]3[C@@H](CC=C4C[C@@H](O)CC[C@@]43C)[C@@H]1CC[C@@H]2/C=N/OCCCN` [I-m, (E)-17β-(3-aminopropoxyiminomethyl)-androst-5-en-3β-ol], the values for the IC50 in assay [1] and in assay [2] were 3.98 µM and 398 nM, respectively.
Consider `CN(C)CCCON=C[C@H]1CC[C@H]2[C@@H]3CC=C4C[C@@H](O)CC[C@]4(C)[C@H]3CC[C@]12C` (mixture of isomers) [I-l, (EZ)-17β-(3-dimethylaminopropoxyiminomethyl)-androst-5-en-3β-ol], for which the IC50 in assay [1] was 25.1 µM; in assay [2], 1260 nM.
For the compound `C[C@]12CC[C@H]3[C@@H](CC=C4C[C@@H](O)CC[C@@]43C)[C@@H]1CC[C@@H]2C=NOCCCCN` (mixture of isomers) [I-n, (EZ)-17β-(4-aminobutoxyiminomethyl)-androst-5-en-3β-ol], the IC50 in assay [1] (setting [5]) was 20 µM; in assay [2], 2000 nM.
As for `CN(C)CCCO/N=C/C=C/[C@H]1CC[C@H]2[C@@H]3CC=C4C[C@@H](O)CC[C@]4(C)[C@H]3CC[C@]12C` [I-i, (E,E)-17β-[3-(3-dimethylaminopropoxyimino)-1-propenyl]-androst-5-en-3β-ol], the IC50 in assay [1] is 2.51 µM; in assay [2] it was 631 nM.
Take `CC12CCC(O)CC1CCC1C2CCC2(C)C(C=NO)CCC12O` (stereo not drawn) [17-hydroxyiminomethyl-5β-androstan-3β-14β-diol]: the “inhibition of the enzyme Na^+, K^+ -ATPase” value with Na^+, K^+ -ATPase [3] is “inhibit the enzyme”. Further, the “affinity for Na^+, K^+ -ATPase” value in the assay on Na^+, K^+ -ATPase [4] is listed as “good affinity”.
With `C[C@]12CC[C@H]3[C@@H](CC=C4C[C@@H](O)CC[C@@]43C)[C@@H]1CC[C@@H]2/C=N/OCCN` [I-e, (E)-17β-(2-aminoethoxyiminomethyl)-androst-5-en-3β-ol], the IC50 in assay [1] (setting [5]) is 2 µM; in assay [2], 158 nM.
`CN(C)CCO/N=C/C=C/[C@H]1CC[C@H]2[C@@H]3CC=C4C[C@@H](O)CC[C@]4(C)[C@H]3CC[C@]12C` [I-h, (E,E)-17β-[3-(2-dimethylaminoethoxyimino)-1-propenyl]-androst-5-en-3β-ol]: the IC50 was 5.01 µM in assay [1] and 1000 nM in assay [2].
The like results for `CN(C)CCO/N=C/[C@H]1CC[C@H]2[C@@H]3CC=C4C[C@@H](O)CC[C@]4(C)[C@H]3CC[C@]12C` [I-f, (E)-17β-[2-dimethylaminoethoxyiminomethyl]-androst-5-en-3β-ol] were, in that order, 79.4 µM and 5010 nM.
`C[C@]12CC[C@H]3[C@@H](CC=C4C[C@@H](O)CC[C@@]43C)[C@@H]1CC[C@@H]2/C=C/C=N/OCCN` [I-g, (E,E)-17β-[3-(2-aminoethoxyimino)-1-propenyl]-androst-5-en-3β-ol]: the IC50 in assay [1] (setting [5]) was 1.58 µM; in assay [2] it was 251 nM.
